# Measured values as given in patent US9187497B2, “Substituted pyrido[3,2-e]pyrrolo[1,2-a]pyrazines as inhibitors of poly(ADP-ribose)polymerase (PARP)” (Takeda Phamaceutical Company Limited, priority 2009, dated 2015).
# Test system: Jurkat cell line
# Assay: PARP cellular chemopotentiation assay (MTS cell viability with and without TMZ)
# Format: cell-based
# Settings: ratio of EC50 for inhibition of cell viability without and with 100 μM TMZ; Jurkat cells, 96 hours of treatment
# Description: Potentiation Factor (PF50) Determination from PARP Cellular Chemopotentiation Assay
# Jurkat cell line was maintained according to the supplier (American Type Culture Collection (Rockville, Md.)). Cells were seeded in 96-well tissue culture microplates at 10,000 cells per well and cultured for 24 hours prior to addition of compounds, TMZ (Temozolomide) or DMSO (dimethylsulfoxide) vehicle. After 96 hours of treatment, the conversion of MTS ([3-(4,5-dimethylthiazol-2-yl)-5-(3-carboxymethoxyphenyl)-2-(4-sulfophenyl)-2H-tetrazolium, inner salt], Promega, Madison, Wis.) by metabolically active cells was determined through measuring the OD490 nm with a Spectramax microplate reader (Molecular Devices, San Diego, Calif.). To generate concentration-response curves, cells were treated in duplicate with a range of serial compound dilutions (final DMSO concentration was 0.5%) in the absence or presence of 100 μM TMZ chemoreagent. The percentage of viable cells per well was calculated by correction for background and normalizing against DMSO-treated cells. EC50 values for inhibition of cell viability were calculated using XLfit4 MicroSoft Excel curve-fitting software. Chemopotentiation factor PF50 was calculated as the ratio of EC50 values of cells co-treated without and with TMZ, respectively.
row,Structure (SMILES),PF50
1,"CCOC(=O)c1ccc(N2CCN(Cc3cnc4c(c3)NC(=O)[C@@H]3CCCN43)CC2)nc1 [Compound 6A, (S)-ethyl 6-(4-((6-oxo-5,6,6a,7,8,9-hexahydropyrido[3,2-e]pyrrolo[1,2-a]pyrazin-3-yl)methyl)piperazin-1-yl)nicotinate]",≧0
2,"CCNC(=O)c1ccc(N2CCN(Cc3cnc4c(c3)NC(=O)[C@@H]3CCCN43)CC2)nc1 [Compound 7, (S)—N-ethyl-6-(4-((6-oxo-5,6,6a,7,8,9-hexahydropyrido[3,2-e]pyrrolo[1,2-a]pyrazin-3-yl)methyl)piperazin-1-yl)nicotinamide]",>10
3,"O=C(NC1CC1)c1ccc(N2CCN(Cc3cnc4c(c3)NC(=O)[C@@H]3CCCN43)CC2)nc1 [Compound 8, (S)—N-cyclopropyl-6-(4-((6-oxo-5,6,6a,7,8,9-hexahydropyrido[3,2-e]pyrrolo[1,2-a]pyrazin-3-yl)methyl)piperazin-1-yl)nicotinamide]",>10
4,"CC(C)NC(=O)c1ccc(N2CCN(Cc3cnc4c(c3)NC(=O)[C@@H]3CCCN43)CC2)nc1 [Compound 9, (S)—N-isopropyl-6-(4-((6-oxo-5,6,6a,7,8,9-hexahydropyrido[3,2-e]pyrrolo[1,2-a]pyrazin-3-yl)methyl)piperazin-1-yl)nicotinamide]",≧0
5,"O=C1Nc2cc(CN3CCN(c4ccc(F)cc4F)CC3)cnc2N2CCC[C@@H]12 [Compound 15, (S)-3-((4-(2,4-difluorophenyl)piperazin-1-yl)methyl)-6a,7,8,9-tetrahydropyrido[3,2-e]pyrrolo[1,2-a]pyrazin-6(5H)-one]",>500
6,"N#Cc1ccc(N2CCN(Cc3cnc4c(c3)NC(=O)[C@@H]3CCCN43)CC2)c(F)c1F [Compound 18, (S)-2,3-difluoro-4-(4-((6-oxo-5,6,6a,7,8,9-hexahydropyrido[3,2-e]pyrrolo[1,2-a]pyrazin-3-yl)methyl)piperazin-1-yl)benzonitrile]",>10
7,"N#Cc1c(F)cc(N2CCN(Cc3cnc4c(c3)NC(=O)[C@@H]3CCCN43)CC2)cc1F [Compound 19, (S)-2,6-difluoro-4-(4-((6-oxo-5,6,6a,7,8,9-hexahydropyrido[3,2-e]pyrrolo[1,2-a]pyrazin-3-yl)methyl)piperazin-1-yl)benzonitrile]",≧0
8,"N#Cc1cc(F)c(N2CCN(Cc3cnc4c(c3)NC(=O)[C@@H]3CCCN43)CC2)c(F)c1 [Compound 20, (S)-3,5-difluoro-4-(4-((6-oxo-5,6,6a,7,8,9-hexahydropyrido[3,2-e]pyrrolo[1,2-a]pyrazin-3-yl)methyl)piperazin-1-yl)benzonitrile]",≧0
9,"N#Cc1ncc(N2CCN(Cc3cnc4c(c3)NC(=O)[C@@H]3CCCN43)CC2)cc1F [Compound 22, (S)-3-fluoro-5-(4-((6-oxo-5,6,6a,7,8,9-hexahydropyrido[3,2-e]pyrrolo[1,2-a]pyrazin-3-yl)methyl)piperazin-1-yl)picolinonitrile]",>10
10,"O=C1Nc2cc(CN3CCN(c4ccccc4)CC3)cnc2N2CCC[C@@H]12 [Compound 23, (S)-3-((4-phenylpiperazin-1-yl)methyl)-6a,7,8,9-tetrahydropyrido[3,2-e]pyrrolo[1,2-a]pyrazin-6(5H)-one]",≧0
11,"CC(=O)c1ccc(N2CCN(Cc3cnc4c(c3)NC(=O)[C@@H]3CCCN43)CC2)cc1 [Compound 25, (S)-3-((4-(4-acetylphenyl)piperazin-1-yl)methyl)-6a,7,8,9-tetrahydropyrido[3,2-e]pyrrolo[1,2-a]pyrazin-6(5H)-one]",≧0
12,"O=C1Nc2cc(CN3CCN(c4ccccn4)CC3)cnc2N2CCC[C@@H]12 [Compound 26, (S)-3-((4-(pyridin-2-yl)piperazin-1-yl)methyl)-6a,7,8,9-tetrahydropyrido[3,2-e]pyrrolo[1,2-a]pyrazin-6(5H)-one]",>10
13,"COc1ccc(N2CCN(Cc3cnc4c(c3)NC(=O)[C@@H]3CCCN43)CC2)cc1 [Compound 31, (S)-3-((4-(4-methoxyphenyl)piperazin-1-yl)methyl)-6a,7,8,9-tetrahydropyrido[3,2-e]pyrrolo[1,2-a]pyrazin-6(5H)-one]",≧0
14,"Cc1ccc(N2CCN(Cc3cnc4c(c3)NC(=O)[C@@H]3CCCN43)CC2)cc1 [Compound 32, (S)-3-((4-p-tolylpiperazin-1-yl)methyl)-6a,7,8,9-tetrahydropyrido[3,2-e]pyrrolo[1,2-a]pyrazin-6(5H)-one]",≧0
15,"O=C1Nc2cc(CN3CCN(c4cccc(O)c4)CC3)cnc2N2CCC[C@@H]12 [Compound 34, (S)-3-((4-(3-hydroxyphenyl)piperazin-1-yl)methyl)-6a,7,8,9-tetrahydropyrido[3,2-e]pyrrolo[1,2-a]pyrazin-6(5H)-one]",≧0
16,"O=C1Nc2cc(CN3CCN(c4ccc(O)cc4)CC3)cnc2N2CCC[C@@H]12 [Compound 35, (S)-3-((4-(4-hydroxyphenyl)piperazin-1-yl)methyl)-6a,7,8,9-tetrahydropyrido[3,2-e]pyrrolo[1,2-a]pyrazin-6(5H)-one]",≧0
17,"O=C1Nc2cc(CN3CCN(c4ccc(C(F)(F)F)cn4)CC3)cnc2N2CCC[C@@H]12 [Compound 36, (S)-3-((4-(5-(trifluoromethyl)pyridin-2-yl)piperazin-1-yl)methyl)-6a,7,8,9-tetrahydropyrido[3,2-e]pyrrolo[1,2-a]pyrazin-6(5H)-one]",≧0
18,"O=C1Nc2cc(CN3CCN(c4cccc(F)c4)CC3)cnc2N2CCC[C@@H]12 [Compound 38, (S)-3-((4-(3-fluorophenyl)piperazin-1-yl)methyl)-6a,7,8,9-tetrahydropyrido[3,2-e]pyrrolo[1,2-a]pyrazin-6(5H)-one]",≧0
19,"O=C1Nc2cc(CN3CCN(c4nc5ccccc5[nH]4)CC3)cnc2N2CCC[C@@H]12 [Compound 39, (S)-3-((4-(1H-benzo[d]imidazol-2-yl)piperazin-1-yl)methyl)-6a,7,8,9-tetrahydropyrido[3,2-e]pyrrolo[1,2-a]pyrazin-6(5H)-one]",≧0
20,"O=C1Nc2cc(CN3CCN(c4ccc(I)cc4)CC3)cnc2N2CCC[C@@H]12 [Compound 40, (S)-3-((4-(4-iodophenyl)piperazin-1-yl)methyl)-6a,7,8,9-tetrahydropyrido[3,2-e]pyrrolo[1,2-a]pyrazin-6(5H)-one]",>10
21,"O=C1Nc2cc(CN3CCN(c4nc5ccccc5o4)CC3)cnc2N2CCC[C@@H]12 [Compound 41, (S)-3-((4-(benzo[d]oxazol-2-yl)piperazin-1-yl)methyl)-6a,7,8,9-tetrahydropyrido[3,2-e]pyrrolo[1,2-a]pyrazin-6(5H)-one]",≧0
22,"O=C1Nc2cc(CN3CCN(c4cc(F)cc(F)c4)CC3)cnc2N2CCC[C@@H]12 [Compound 46, (S)-3-((4-(3,5-difluorophenyl)piperazin-1-yl)methyl)-6a,7,8,9-tetrahydropyrido[3,2-e]pyrrolo[1,2-a]pyrazin-6(5H)-one]",≧0
23,"O=C1Nc2cc(CN3CCN(c4ccc(C(F)(F)F)cc4)CC3)cnc2N2CCC[C@@H]12 [Compound 48, (S)-3-((4-(4-(trifluoromethyl)phenyl)piperazin-1-yl)methyl)-6a,7,8,9-tetrahydropyrido[3,2-e]pyrrolo[1,2-a]pyrazin-6(5H)-one]",≧0
24,"O=C1Nc2cc(CN3CC=C(c4ccc(Cl)cc4)CC3)cnc2N2CCC[C@H]12 [Compound 49, (R)-3-((4-(4-chlorophenyl)-5,6-dihydropyridin-1(2H)-yl)methyl)-6a,7,8,9-tetrahydropyrido[3,2-e]pyrrolo[1,2-a]pyrazin-6(5H)-one]",≧0
25,"O=C1Nc2cc(CN3CCN(c4ccc(Cl)cc4)CC3)cnc2N2CCC[C@H]12 [Compound 50, (R)-3-((4-(4-chlorophenyl)piperazin-1-yl)methyl)-6a,7,8,9-tetrahydropyrido[3,2-e]pyrrolo[1,2-a]pyrazin-6(5H)-one]",≧0
26,"O=C1Nc2cc(CN3CCC(c4ccc(Cl)cc4)CC3)cnc2N2CCC[C@H]12 [Compound 51, (R)-3-((4-(4-chlorophenyl)piperidin-1-yl)methyl)-6a,7,8,9-tetrahydropyrido[3,2-e]pyrrolo[1,2-a]pyrazin-6(5H)-one]",≧0
27,"CC(C)NC(=O)c1ccc(N2CCN(Cc3cnc4c(c3)NC(=O)[C@@H]3CCCCN43)CC2)nc1 [Compound 76, (S)—N-isopropyl-6-(4-((6-oxo-6,6a,7,8,9,10-hexahydro-5H-dipyrido[1,2-a:3′,2′-e]pyrazin-3-yl)methyl)piperazin-1-yl)nicotinamide]",≧0
28,"CCNC(=O)c1ccc(N2CCN(Cc3cnc4c(c3)NC(=O)[C@@H]3CCCCN43)CC2)nc1 [Compound 78, (S)—N-ethyl-6-(4-((6-oxo-6,6a,7,8,9,10-hexahydro-5H-dipyrido[1,2-a:3′,2′-e]pyrazin-3-yl)methyl)piperazin-1-yl)nicotinamide]",>10
29,"O=C(NC1CC1)c1ccc(N2CCN(Cc3cnc4c(c3)NC(=O)[C@@H]3CCCCN43)CC2)nc1 [Compound 79, (S)—N-cyclopropyl-6-(4-((6-oxo-6,6a,7,8,9,10-hexahydro-5H-dipyrido[1,2-a:3′,2′-e]pyrazin-3-yl)methyl)piperazin-1-yl)nicotinamide]",>10
30,"N#Cc1ccc(N2CCN(Cc3cnc4c(c3)NC(=O)[C@@H]3CSCCN43)CC2)nc1 [Compound 89, (R)-6-(4-((6-oxo-5,6,6a,7,9,10-hexahydropyrido[3,2-e][1,4]thiazino[4,3-a]pyrazin-3-yl)methyl)piperazin-1-yl)nicotinonitrile]",>10
